Several values for one entry are separate records, joined by “and”; a condition that tells them apart may be missing. Equal values may be shown once.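 Compound exposure: 48 hours, 5 concentrations, 96-well plates. GI50 is the concentration that inhibits growth by half. TGI: concentration producing complete growth inhibition.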
What was measured:
Test in all cases: inhibition of tumour cell growth, NCI panel, 48 h
786-0 renal = tested on: 786-0 renal
HCT-116 colon = tested on: HCT-116 colon
HCT-15 colon = tested on: HCT-15 colon
HOP-92 NSCLC = tested on: HOP-92 NSCLC
M14 melanoma = tested on: M14 melanoma
RPMI-8226 leukemia = tested on: RPMI-8226 leukemia
SK-MEL-2 melanoma = tested on: SK-MEL-2 melanoma
SK-MEL-28 melanoma = tested on: SK-MEL-28 melanoma
SK-OV-3 ovarian = tested on: SK-OV-3 ovarian
SW-620 colon = tested on: SW-620 colon

Structure (SMILES)	GI50 (786-0 renal)	TGI (786-0 renal)	GI50 (HCT-116 colon)	TGI (HCT-116 colon)	GI50 (HCT-15 colon)	TGI (HCT-15 colon)	GI50 (HOP-92 NSCLC)	TGI (HOP-92 NSCLC)	GI50 (M14 melanoma)	TGI (M14 melanoma)	GI50 (RPMI-8226 leukemia)	TGI (RPMI-8226 leukemia)	GI50 (SK-MEL-2 melanoma)	TGI (SK-MEL-2 melanoma)	GI50 (SK-MEL-28 melanoma)	TGI (SK-MEL-28 melanoma)	GI50 (SK-OV-3 ovarian)	TGI (SK-OV-3 ovarian)	GI50 (SW-620 colon)	TGI (SW-620 colon)
O=[N+]([O-])/C(=C/C=C/c1ccccc1)c1ccccc1	1.81 µM	3.4 µM	1.88 µM	3.62 µM	1.86 µM	4.22 µM	1.54 µM	3.8 µM	2.02 µM	5.31 µM	0.118 µM	1.55 µM	1.67 µM	3.93 µM	2.09 µM	4.23 µM	12 µM	24.4 µM	1.79 µM	3.67 µM
O=C(Nc1ccc(-n2cc(-c3ccncc3)c(-c3ccc(Cl)c(O)c3)n2)cc1)c1ccc(Cl)c(Cl)c1	1.78 µM	4.3 µM	2.89 µM	> 100 µM	1.12 µM	> 100 µM	8.97 µM	> 100 µM	2.35 µM	7.56 µM	0.736 µM	3.47 µM	4.05 µM	> 100 µM	2.94 µM	> 100 µM	2.08 µM	> 100 µM	4.42 µM	> 100 µM
CC(C)(C)c1cnc(CSc2cnc(NC(=O)C3CCNCC3)s2)o1	0.47 µM and 0.698 µM	> 47.7 µM	0.102 µM and 0.0797 µM	> 100 µM	4.76 µM and > 6.31 µM	> 100 µM	0.114 µM and 0.17 µM	0.544 µM and 0.657 µM	0.441 µM and 0.564 µM	2.87 µM and 2.61 µM	0.118 µM and 0.243 µM	0.45 µM and 0.768 µM	0.124 µM and 0.197 µM	0.284 µM and 0.518 µM	0.166 µM and 0.221 µM	0.523 µM and 1.06 µM	0.475 µM and 0.569 µM	> 100 µM	0.256 µM and 0.274 µM	> 100 µM
COc1ccc(C2=NOC3=c4ccccc4=CSC3=C2c2ccccc2)cc1	27.5 µM	> 100 µM	12.8 µM	> 100 µM	22.3 µM	> 100 µM	23.6 µM	83.2 µM	26.3 µM	> 100 µM	25.3 µM	> 100 µM	75.3 µM	> 100 µM	37.7 µM	> 100 µM	> 100 µM	> 100 µM	28.9 µM	> 100 µM
Nc1cccc(C(=O)/C=C/c2ccccc2O)c1		> 100 µM		> 100 µM		> 100 µM		> 100 µM		> 100 µM		39.3 µM		> 100 µM		> 100 µM		> 100 µM		29.6 µM
COc1cc(C(=O)/C=C/c2c(C)n([O-])c3ccc(Cl)cc3[n+]2=O)cc(OC)c1OC	13.2 µM	92.4 µM	2.75 µM	12.2 µM	4.26 µM	30.9 µM	4.47 µM	> 100 µM	4.59 µM	> 100 µM	3.18 µM	33.4 µM	17 µM	81.3 µM	10.8 µM	52.9 µM	24.9 µM	> 100 µM	2.57 µM	11.7 µM
C=C(/C=C/C=C(\CO)CCC=C(C)C)[C@H]1CCC2([C@H](CCCO)/C(=C(/C)C=O)CC[C@]2(C)O)[C@H]1O (stereo not given in full)		> 100 µM		> 100 µM		> 100 µM		> 100 µM		> 100 µM		> 100 µM		> 100 µM		> 100 µM		> 100 µM		> 100 µM
CN(C)CN(C)c1nc(N(C)C)nc(N(C)C)n1		> 100 µM		> 100 µM		> 100 µM		> 100 µM		> 100 µM		> 100 µM		> 100 µM		> 100 µM		> 100 µM		> 100 µM
OCCN1CCCN(CCCN2c3ccccc3Sc3ccc(C(F)(F)F)cc32)CC1	2.21 µM	5.25 µM	2.1 µM	4.49 µM	2.74 µM	10.3 µM	1.73 µM	7.63 µM	1.97 µM	3.9 µM	2.21 µM	4.46 µM	2.07 µM	4.08 µM	1.64 µM	3.03 µM	5.29 µM	18.4 µM	1.86 µM	4.15 µM
C=C1CCC2C(C)(CO)C(O)CCC2(C)C1C/C=C1\C(=O)OCC1O (stereo not given)		18.1 µM		28.9 µM		39.5 µM		66.1 µM		53.7 µM		49.9 µM		30.8 µM		27.3 µM		66.7 µM		24 µM
c1ccc2c(c1)n1nnnc1c1nnnn21		> 100 µM		> 100 µM		> 100 µM		> 100 µM		> 100 µM		> 100 µM		> 100 µM		> 100 µM		> 100 µM		> 100 µM
Clc1cc(Cl)cc(Nc2ccc3c(OCCCN4CCOCC4)cccc3n2)c1	1.69 µM	3.22 µM	1.82 µM	3.56 µM	1.75 µM	3.52 µM	2.03 µM	6.94 µM	1.86 µM	4 µM	2.8 µM	8.33 µM	3.45 µM	9.51 µM	1.65 µM	3.3 µM	2.78 µM	8.55 µM	1.86 µM	3.69 µM
COc1cc2c(c(OC)c1OC)-c1ccc(SC)c(=O)cc1C(CC(=O)Oc1ccccc1F)C2 (stereo not given)		> 7.5 µM		0.0644 µM		0.248 µM		> 7.5 µM		0.908 µM		> 7.5 µM		0.125 µM		> 7.5 µM		> 7.5 µM		> 7.5 µM
Cn1cc(C2=C(c3cccc([N+](=O)[O-])c3)C(=O)NC2=O)c2ccccc21	6.45 µM	> 25 µM	5.5 µM	> 25 µM	7.97 µM	> 25 µM	4.22 µM	> 20.6 µM	12.4 µM	> 25 µM	7.47 µM	> 23.2 µM	5.24 µM	17.2 µM	10.5 µM	> 25 µM	6.35 µM	> 25 µM	11.4 µM	> 25 µM
CN1CCC(C(=O)Nc2n[nH]c3nnc(-c4ccccc4)cc23)CC1	> 25 µM	> 25 µM	> 23.6 µM	> 25 µM	> 25 µM	> 25 µM	11.3 µM	> 25 µM	> 25 µM	> 25 µM	> 25 µM	> 25 µM	> 20.1 µM	> 25 µM	> 25 µM	> 25 µM	16.6 µM	> 25 µM	> 25 µM	> 25 µM
COc1ccc(-c2nc3sccn3c2/C=C/C(=O)c2cc(OC)c(OC)c(OC)c2)cc1	3.7 µM	> 100 µM	2.19 µM	12.6 µM	3.33 µM	> 83 µM	0.4 µM	4.59 µM	2.52 µM	> 27.6 µM	2.24 µM	7.56 µM	3.58 µM	> 26.3 µM	4.05 µM	51.8 µM	3.13 µM	24.6 µM	3.01 µM	> 100 µM
CCCC/C=C1/CCC(CN(C)C)C1=O (stereo not given)		2.9 µM		4.01 µM		1.08 µM		3.83 µM		3.26 µM		0.897 µM		10.1 µM		3.93 µM		25.1 µM		2.88 µM
CNC(=O)N(CCCCC(NC(C)=O)C(=O)NCc1ccccc1)Cc1ccccc1 (stereo not given)		> 100 µM		> 100 µM		> 100 µM		> 100 µM		> 100 µM		> 100 µM		> 100 µM		> 100 µM		> 100 µM		> 100 µM
O=C([CH-]C(=O)c1ccccc1)c1ccccc1.[CH2-]C.[CH2-]C.[Tl+3]	19.2 µM	> 100 µM	9.72 µM	34.2 µM	15.4 µM	> 100 µM	21.6 µM	> 72.8 µM	18.5 µM	68.5 µM	10.4 µM	> 66 µM	31.6 µM	> 92.4 µM	33.5 µM	> 100 µM	32.5 µM	> 100 µM	26.5 µM	> 100 µM
COc1cc([C@H]2c3cc4c(cc3[C@H](NCc3ccc(F)cc3)C3COC(=O)[C@H]32)OCO4)cc(OC)c1O (stereo not given in full)		5.48 µM		23.1 µM		16.2 µM		49.5 µM		13.6 µM		18.2 µM		33.1 µM		37 µM		9.78 µM		21.4 µM
O=S1(=O)CS(=O)(=O)OCCCCCO1		> 100 µM		> 100 µM		> 100 µM		> 100 µM		> 100 µM		> 100 µM		> 100 µM		> 100 µM		> 100 µM		> 100 µM
O=C(NCCNC1=CC(=O)c2nc3ccccc3c3ccnc1c23)c1cnccn1	36.7 µM	> 100 µM	19.8 µM	> 100 µM	38 µM	> 100 µM	16.1 µM	> 100 µM	40.8 µM	> 100 µM	1.1 µM	24.3 µM	60.5 µM	> 100 µM	40.9 µM	> 100 µM	> 100 µM	> 100 µM	24.2 µM	> 100 µM
CN(Cc1cnc2nc(N)nc(N)c2n1)c1c(Cl)cc(C(=O)NC(CCC(=O)O)C(=O)O)cc1Br (stereo not given)	< 0.01 µM	> 100 µM	< 0.01 µM	> 100 µM	< 0.01 µM	> 100 µM	> 100 µM	> 100 µM	< 0.01 µM	> 100 µM	< 0.01 µM	> 100 µM	< 0.01 µM	> 100 µM	> 23.8 µM	> 100 µM	0.0595 µM	> 100 µM	< 0.01 µM	> 100 µM
O=C(Cc1csc2nc(-c3ccc(Br)cc3)cn12)N/N=C/c1ccccc1O	4.68 µM	17.7 µM	3.21 µM	12.4 µM	0.952 µM	17.3 µM	2.1 µM	14.6 µM	2.58 µM	7.77 µM	2.83 µM	20.7 µM	21.1 µM	53.8 µM	11.9 µM	24.2 µM	12.8 µM	30.2 µM	3.98 µM	17.2 µM
NCC[PH+](c1ccccc1)c1ccccc1.NCC[PH+](c1ccccc1)c1ccccc1.[Cl-].[Pt+4]	> 100 µM	> 100 µM	46.1 µM	> 100 µM	> 100 µM	> 100 µM	> 100 µM	> 100 µM	> 100 µM	> 100 µM	14.7 µM	> 65.2 µM	> 100 µM	> 100 µM	> 100 µM	> 100 µM	> 100 µM	> 100 µM	> 100 µM	> 100 µM
CCCCCCC1CCCCN1C(c1ccccc1)C(O)c1ccccc1 (stereo not given)	3.97 µM	13.6 µM	3.11 µM	11.7 µM	5.39 µM	18.1 µM	2.84 µM	9.05 µM	2.95 µM	11.4 µM	2.61 µM	6.08 µM	5.33 µM	20.5 µM	9.99 µM	22.1 µM	12.2 µM	25.1 µM	5.35 µM	18.4 µM
Cc1nc2sc(C(=O)Nc3cccc(Cl)c3)c(N)c2cc1C(O)c1ccccc1 (stereo not given)	2.47 µM	20.7 µM	0.426 µM	> 100 µM	0.384 µM	46.8 µM	10.4 µM	31.3 µM	0.709 µM	> 100 µM	0.848 µM	> 100 µM	2.43 µM	26.5 µM	3.12 µM	22.3 µM	1.22 µM	16.1 µM	0.351 µM	19.7 µM
COc1ccc2c(c1)CCC1C2CCC2(C)C(NC(=O)CCCCC3CCSS3)CCC12 (stereo not given)	> 100 µM	> 100 µM	11.2 µM	> 100 µM	8.21 µM	> 100 µM	4.16 µM	63.4 µM	16.8 µM	> 100 µM	5.85 µM	> 100 µM	53.5 µM	> 100 µM	25.6 µM	> 100 µM	43.8 µM	> 100 µM	> 100 µM	> 100 µM
Cc1nc(Nc2ccc(Cl)c(Cl)c2)sc1C(/C=C/c1ccc2c(c1)OCO2)=N/Nc1ccc([N+](=O)[O-])cc1[N+](=O)[O-]		> 100 µM		> 100 µM		> 100 µM		> 100 µM		> 100 µM		> 100 µM		> 100 µM		> 100 µM		> 100 µM		> 100 µM

Reference: PubChem BioAssay (NCI)
